Results reported in ChEMBL document CHEMBL3046050, “Synthesis of bioactive spiro-2-[3-(2-phenyl)-3H-indolyl]-1-aryl-3-phenylaziridines and SAR studies on their antimicrobial behavior” (Med Chem Res, 2009).

System: Escherichia coli
Assay: Antimicrobial activity against Escherichia coli at 20 ug/ml after 24 hr by disk diffusion method
Type: functional
Details: read-out: IZ

Structure (SMILES)	zone of inhibition at 20 µg/mL [mm]
c1ccc(C2=Nc3ccccc3C23C(c2ccccc2)N3c2ccccc2)cc1 (stereo unspecified)	9.5
O=C(O)c1ccccc1N1C(c2ccccc2)C12C(c1ccccc1)=Nc1ccccc12 (stereo unspecified)	4.2
O=[N+]([O-])c1cccc(N2C(c3ccccc3)C23C(c2ccccc2)=Nc2ccccc23)c1 (stereo unspecified)	17.7
COc1ccccc1N1C(c2ccccc2)C12C(c1ccccc1)=Nc1ccccc12 (stereo unspecified)	21.2
CCOc1ccccc1N1C(c2ccccc2)C12C(c1ccccc1)=Nc1ccccc12 (stereo unspecified)	25
O=[N+]([O-])c1ccccc1N1C(c2ccccc2)C12C(c1ccccc1)=Nc1ccccc12 (stereo unspecified)	18.3
Clc1cccc(N2C(c3ccccc3)C23C(c2ccccc2)=Nc2ccccc23)c1 (stereo unspecified)	15.8
CCOc1cccc(N2C(c3ccccc3)C23C(c2ccccc2)=Nc2ccccc23)c1 (stereo unspecified)	24.3
Clc1ccc(N2C(c3ccccc3)C23C(c2ccccc2)=Nc2ccccc23)cc1 (stereo unspecified)	7.7

System: Bacillus subtilis
Assay: Antimicrobial activity against Bacillus subtilis at 20 ug/ml after 24 hr by disk diffusion method
Type: functional
Details: read-out: IZ

Structure (SMILES)	zone of inhibition at 20 µg/mL [mm]
c1ccc(C2=Nc3ccccc3C23C(c2ccccc2)N3c2ccccc2)cc1 (stereo unspecified)	10.2
O=C(O)c1ccccc1N1C(c2ccccc2)C12C(c1ccccc1)=Nc1ccccc12 (stereo unspecified)	3.3
O=[N+]([O-])c1cccc(N2C(c3ccccc3)C23C(c2ccccc2)=Nc2ccccc23)c1 (stereo unspecified)	17.2
COc1ccccc1N1C(c2ccccc2)C12C(c1ccccc1)=Nc1ccccc12 (stereo unspecified)	23
CCOc1ccccc1N1C(c2ccccc2)C12C(c1ccccc1)=Nc1ccccc12 (stereo unspecified)	25.7
O=[N+]([O-])c1ccccc1N1C(c2ccccc2)C12C(c1ccccc1)=Nc1ccccc12 (stereo unspecified)	19.3
Clc1cccc(N2C(c3ccccc3)C23C(c2ccccc2)=Nc2ccccc23)c1 (stereo unspecified)	15.5
CCOc1cccc(N2C(c3ccccc3)C23C(c2ccccc2)=Nc2ccccc23)c1 (stereo unspecified)	24.5
Clc1ccc(N2C(c3ccccc3)C23C(c2ccccc2)=Nc2ccccc23)cc1 (stereo unspecified)	7.3

System: Escherichia coli
Assay: Antimicrobial activity against Escherichia coli at 20 ug/ml after 24 hr by disk diffusion method relative to ampicillin
Type: functional
Details: not given

Structure (SMILES)	Ratio
c1ccc(C2=Nc3ccccc3C23C(c2ccccc2)N3c2ccccc2)cc1 (stereo unspecified)	90.5
O=C(O)c1ccccc1N1C(c2ccccc2)C12C(c1ccccc1)=Nc1ccccc12 (stereo unspecified)	39.7
O=[N+]([O-])c1cccc(N2C(c3ccccc3)C23C(c2ccccc2)=Nc2ccccc23)c1 (stereo unspecified)	168.3
COc1ccccc1N1C(c2ccccc2)C12C(c1ccccc1)=Nc1ccccc12 (stereo unspecified)	201.6
CCOc1ccccc1N1C(c2ccccc2)C12C(c1ccccc1)=Nc1ccccc12 (stereo unspecified)	238.1
O=[N+]([O-])c1ccccc1N1C(c2ccccc2)C12C(c1ccccc1)=Nc1ccccc12 (stereo unspecified)	174.6
Clc1cccc(N2C(c3ccccc3)C23C(c2ccccc2)=Nc2ccccc23)c1 (stereo unspecified)	150.8
CCOc1cccc(N2C(c3ccccc3)C23C(c2ccccc2)=Nc2ccccc23)c1 (stereo unspecified)	231.7
Clc1ccc(N2C(c3ccccc3)C23C(c2ccccc2)=Nc2ccccc23)cc1 (stereo unspecified)	73

System: Priestia megaterium
Assay: Antimicrobial activity against Bacillus megaterium at 20 ug/ml after 24 hr by disk diffusion method relative to ampicillin
Type: functional
Details: not given

Structure (SMILES)	Ratio
c1ccc(C2=Nc3ccccc3C23C(c2ccccc2)N3c2ccccc2)cc1 (stereo unspecified)	83.3
O=C(O)c1ccccc1N1C(c2ccccc2)C12C(c1ccccc1)=Nc1ccccc12 (stereo unspecified)	36.7
O=[N+]([O-])c1cccc(N2C(c3ccccc3)C23C(c2ccccc2)=Nc2ccccc23)c1 (stereo unspecified)	142.7
COc1ccccc1N1C(c2ccccc2)C12C(c1ccccc1)=Nc1ccccc12 (stereo unspecified)	158.2
CCOc1ccccc1N1C(c2ccccc2)C12C(c1ccccc1)=Nc1ccccc12 (stereo unspecified)	187.9
O=[N+]([O-])c1ccccc1N1C(c2ccccc2)C12C(c1ccccc1)=Nc1ccccc12 (stereo unspecified)	151.1
Clc1cccc(N2C(c3ccccc3)C23C(c2ccccc2)=Nc2ccccc23)c1 (stereo unspecified)	121.5
CCOc1cccc(N2C(c3ccccc3)C23C(c2ccccc2)=Nc2ccccc23)c1 (stereo unspecified)	176.6
Clc1ccc(N2C(c3ccccc3)C23C(c2ccccc2)=Nc2ccccc23)cc1 (stereo unspecified)	57.9

System: Brevundimonas diminuta
Assay: Antimicrobial activity against Brevundimonas diminuta at 20 ug/ml after 24 hr by disk diffusion method relative to ampicillin
Type: functional
Details: not given

Structure (SMILES)	Ratio
c1ccc(C2=Nc3ccccc3C23C(c2ccccc2)N3c2ccccc2)cc1 (stereo unspecified)	148.1
O=C(O)c1ccccc1N1C(c2ccccc2)C12C(c1ccccc1)=Nc1ccccc12 (stereo unspecified)	64.8
O=[N+]([O-])c1cccc(N2C(c3ccccc3)C23C(c2ccccc2)=Nc2ccccc23)c1 (stereo unspecified)	229.6
COc1ccccc1N1C(c2ccccc2)C12C(c1ccccc1)=Nc1ccccc12 (stereo unspecified)	266.7
CCOc1ccccc1N1C(c2ccccc2)C12C(c1ccccc1)=Nc1ccccc12 (stereo unspecified)	303.7
O=[N+]([O-])c1ccccc1N1C(c2ccccc2)C12C(c1ccccc1)=Nc1ccccc12 (stereo unspecified)	244.4
Clc1cccc(N2C(c3ccccc3)C23C(c2ccccc2)=Nc2ccccc23)c1 (stereo unspecified)	207.4
CCOc1cccc(N2C(c3ccccc3)C23C(c2ccccc2)=Nc2ccccc23)c1 (stereo unspecified)	288.9
Clc1ccc(N2C(c3ccccc3)C23C(c2ccccc2)=Nc2ccccc23)cc1 (stereo unspecified)	118.5

System: Priestia megaterium
Assay: Antimicrobial activity against Bacillus megaterium at 20 ug/ml after 24 hr by disk diffusion method
Type: functional
Details: read-out: IZ

Structure (SMILES)	zone of inhibition at 20 µg/mL [mm]
c1ccc(C2=Nc3ccccc3C23C(c2ccccc2)N3c2ccccc2)cc1 (stereo unspecified)	9.8
O=C(O)c1ccccc1N1C(c2ccccc2)C12C(c1ccccc1)=Nc1ccccc12 (stereo unspecified)	4.3
O=[N+]([O-])c1cccc(N2C(c3ccccc3)C23C(c2ccccc2)=Nc2ccccc23)c1 (stereo unspecified)	16.8
COc1ccccc1N1C(c2ccccc2)C12C(c1ccccc1)=Nc1ccccc12 (stereo unspecified)	18.7
CCOc1ccccc1N1C(c2ccccc2)C12C(c1ccccc1)=Nc1ccccc12 (stereo unspecified)	22.2
O=[N+]([O-])c1ccccc1N1C(c2ccccc2)C12C(c1ccccc1)=Nc1ccccc12 (stereo unspecified)	17.8
Clc1cccc(N2C(c3ccccc3)C23C(c2ccccc2)=Nc2ccccc23)c1 (stereo unspecified)	14.3
CCOc1cccc(N2C(c3ccccc3)C23C(c2ccccc2)=Nc2ccccc23)c1 (stereo unspecified)	20.8
Clc1ccc(N2C(c3ccccc3)C23C(c2ccccc2)=Nc2ccccc23)cc1 (stereo unspecified)	6.8

System: Brevundimonas diminuta
Assay: Antimicrobial activity against Brevundimonas diminuta at 20 ug/ml after 24 hr by disk diffusion method
Type: functional
Details: read-out: IZ

Structure (SMILES)	zone of inhibition at 20 µg/mL [mm]
c1ccc(C2=Nc3ccccc3C23C(c2ccccc2)N3c2ccccc2)cc1 (stereo unspecified)	13.3
O=C(O)c1ccccc1N1C(c2ccccc2)C12C(c1ccccc1)=Nc1ccccc12 (stereo unspecified)	5.8
O=[N+]([O-])c1cccc(N2C(c3ccccc3)C23C(c2ccccc2)=Nc2ccccc23)c1 (stereo unspecified)	20.7
COc1ccccc1N1C(c2ccccc2)C12C(c1ccccc1)=Nc1ccccc12 (stereo unspecified)	24
CCOc1ccccc1N1C(c2ccccc2)C12C(c1ccccc1)=Nc1ccccc12 (stereo unspecified)	27.3
O=[N+]([O-])c1ccccc1N1C(c2ccccc2)C12C(c1ccccc1)=Nc1ccccc12 (stereo unspecified)	22
Clc1cccc(N2C(c3ccccc3)C23C(c2ccccc2)=Nc2ccccc23)c1 (stereo unspecified)	18.7
CCOc1cccc(N2C(c3ccccc3)C23C(c2ccccc2)=Nc2ccccc23)c1 (stereo unspecified)	26
Clc1ccc(N2C(c3ccccc3)C23C(c2ccccc2)=Nc2ccccc23)cc1 (stereo unspecified)	10.7

System: not listed separately
Assay: Acute toxicity in Rattus norvegicus (rat)
Type: organism-based
Details: in vivo

Structure (SMILES)	LD50 [mg/kg]
c1ccc(C2=Nc3ccccc3C23C(c2ccccc2)N3c2ccccc2)cc1 (stereo unspecified)	4240
O=C(O)c1ccccc1N1C(c2ccccc2)C12C(c1ccccc1)=Nc1ccccc12 (stereo unspecified)	3840
O=[N+]([O-])c1cccc(N2C(c3ccccc3)C23C(c2ccccc2)=Nc2ccccc23)c1 (stereo unspecified)	4500
COc1ccccc1N1C(c2ccccc2)C12C(c1ccccc1)=Nc1ccccc12 (stereo unspecified)	5150
CCOc1ccccc1N1C(c2ccccc2)C12C(c1ccccc1)=Nc1ccccc12 (stereo unspecified)	4820
O=[N+]([O-])c1ccccc1N1C(c2ccccc2)C12C(c1ccccc1)=Nc1ccccc12 (stereo unspecified)	3560
Clc1cccc(N2C(c3ccccc3)C23C(c2ccccc2)=Nc2ccccc23)c1 (stereo unspecified)	4380
CCOc1cccc(N2C(c3ccccc3)C23C(c2ccccc2)=Nc2ccccc23)c1 (stereo unspecified)	4640
Clc1ccc(N2C(c3ccccc3)C23C(c2ccccc2)=Nc2ccccc23)cc1 (stereo unspecified)	4240

System: Bacillus subtilis
Assay: Antimicrobial activity against Bacillus subtilis at 20 ug/ml after 24 hr by disk diffusion method relative to ampicillin
Type: functional
Details: not given

Structure (SMILES)	Ratio
c1ccc(C2=Nc3ccccc3C23C(c2ccccc2)N3c2ccccc2)cc1 (stereo unspecified)	109.3
O=C(O)c1ccccc1N1C(c2ccccc2)C12C(c1ccccc1)=Nc1ccccc12 (stereo unspecified)	35.8
O=[N+]([O-])c1cccc(N2C(c3ccccc3)C23C(c2ccccc2)=Nc2ccccc23)c1 (stereo unspecified)	184.6
COc1ccccc1N1C(c2ccccc2)C12C(c1ccccc1)=Nc1ccccc12 (stereo unspecified)	247.3
CCOc1ccccc1N1C(c2ccccc2)C12C(c1ccccc1)=Nc1ccccc12 (stereo unspecified)	276
O=[N+]([O-])c1ccccc1N1C(c2ccccc2)C12C(c1ccccc1)=Nc1ccccc12 (stereo unspecified)	207.9
Clc1cccc(N2C(c3ccccc3)C23C(c2ccccc2)=Nc2ccccc23)c1 (stereo unspecified)	166.7
CCOc1cccc(N2C(c3ccccc3)C23C(c2ccccc2)=Nc2ccccc23)c1 (stereo unspecified)	263.4
Clc1ccc(N2C(c3ccccc3)C23C(c2ccccc2)=Nc2ccccc23)cc1 (stereo unspecified)	78.6
